Publication PMC7914897, “Cytotoxic Potential of a-Azepano- and 3-Amino-3,4-SeCo-Triterpenoids” (International Journal of Molecular Sciences, 2021)

Key:
[1] = tested on: SNB-19 (CNS cancer); test: NCI-60 screen (SRB, 48 h); details: Homo sapiens; for GI50: SNB-19; for IC (TGI): SNB-19, 48 h, read-out: TGI; for CC50: SNB-19, read-out: LC50
[2] = tested on: A498 (Renal cancer); test: NCI-60 screen (SRB, 48 h); details: Homo sapiens; for GI50: A498; for IC (TGI): A498, 48 h, read-out: TGI; for CC50: A498, read-out: LC50
[3] = tested on: HOP-92 (NSC lung cancer); test: NCI-60 screen (SRB, 48 h); details: Homo sapiens; for GI50: HOP-92; for IC (TGI): HOP-92, 48 h, read-out: TGI; for CC50: HOP-92, read-out: LC50
[4] = tested on: NIH 3T3 (non-malignant mouse fibroblasts); test: SRB cytotoxicity assay, 72 h; assay type: cell-based; details: Mus musculus, NIH3T3; NIH 3T3, 72 h, cut-off 30 µM; read-out: EC50
Outline: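 Following 24 h attachment, cells received serially diluted compounds up to 30 µM for 72 h, with DMSO kept at or below 0.5%. TCA-fixed cells were SRB-stained and absorbance recorded at 570 nm to derive EC50 values.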

[5] = tested on: CNS cancer subpanel; test: NCI-60 screen, subpanel; details: Homo sapiens; for IC (TGI): 48 h, read-out: TGI MG_MID; for GI50: read-out: GI50 MG_MID; for CC50: read-out: LC50 MG_MID
[6] = tested on: SF-295 (CNS cancer); test: NCI-60 screen (SRB, 48 h); details: Homo sapiens; for GI50: SF-295; for IC (TGI): SF-295, 48 h, read-out: TGI; for CC50: SF-295, read-out: LC50
[7] = tested on: COLO 205 (Colon cancer); test: NCI-60 screen (SRB, 48 h); details: Homo sapiens; for GI50: COLO 205; for IC (TGI): COLO 205, 48 h, read-out: TGI; for CC50: COLO 205, read-out: LC50
[8] = tested on: HCT-116 (Colon cancer); test: NCI-60 screen (SRB, 48 h); details: Homo sapiens; for GI50: HCT-116; for IC (TGI): HCT-116, 48 h, read-out: TGI; for CC50: HCT-116, read-out: LC50
[9] = tested on: OVCAR-5 (Ovarian cancer); test: NCI-60 screen (SRB, 48 h); details: Homo sapiens; for GI50: OVCAR-5; for IC (TGI): OVCAR-5, 48 h, read-out: TGI; for CC50: OVCAR-5, read-out: LC50
[10] = tested on: SW-620 (Colon cancer); test: NCI-60 screen (SRB, 48 h); details: Homo sapiens; for GI50: SW-620; for IC (TGI): SW-620, 48 h, read-out: TGI; for CC50: SW-620, read-out: LC50
[11] = tested on: M14 (Melanoma); test: NCI-60 screen (SRB, 48 h); details: Homo sapiens; for GI50: M14; for IC (TGI): M14, 48 h, read-out: TGI; for CC50: M14, read-out: LC50
[12] = tested on: MDA-MB-31/ATCC (Breast cancer); test: NCI-60 screen (SRB, 48 h); details: Homo sapiens; for IC (TGI): 48 h, read-out: TGI; for CC50: read-out: LC50
[13] = tested on: UACC-257 (Melanoma); test: NCI-60 screen (SRB, 48 h); details: Homo sapiens; for GI50: UACC-257; for IC (TGI): UACC-257, 48 h, read-out: TGI; for CC50: UACC-257, read-out: LC50
[14] = tested on: SNB-75 (CNS cancer); test: NCI-60 screen (SRB, 48 h); details: Homo sapiens; for GI50: SNB-75; for IC (TGI): SNB-75, 48 h, read-out: TGI; for CC50: SNB-75, read-out: LC50
[15] = tested on: SN12C (Renal cancer); test: NCI-60 screen (SRB, 48 h); details: Homo sapiens; for IC (TGI): 48 h, read-out: TGI; for CC50: read-out: LC50
[16] = tested on: MALME-3M (Melanoma); test: NCI-60 screen (SRB, 48 h); details: Homo sapiens; for IC (TGI): 48 h, read-out: TGI; for CC50: read-out: LC50
[17] = tested on: NCI-H322M (NSC lung cancer); test: NCI-60 screen (SRB, 48 h); details: Homo sapiens; for IC (TGI): 48 h, read-out: TGI; for CC50: read-out: LC50
[18] = tested on: HCC-2998 (Colon cancer); test: NCI-60 screen (SRB, 48 h); details: for GI50 / IC (TGI) / CC50: Homo sapiens; for GI50: HCC 2998; for IC (TGI): HCC 2998, 48 h, read-out: TGI; for CC50: HCC 2998, read-out: LC50
[19] = tested on: NCI-H226 (NSC lung cancer); test: NCI-60 screen (SRB, 48 h); details: Homo sapiens; for GI50: NCI-H226; for IC (TGI): NCI-H226, 48 h, read-out: TGI
[20] = tested on: Melanoma subpanel; test: NCI-60 screen, subpanel; details: Homo sapiens; for IC (TGI): 48 h, read-out: TGI MG_MID; for GI50: read-out: GI50 MG_MID; for CC50: read-out: LC50 MG_MID
[21] = tested on: MCF7 (Breast cancer); test: NCI-60 screen (SRB, 48 h); details: Homo sapiens; for GI50: MCF7; for IC (TGI): MCF7, 48 h, read-out: TGI
[22] = tested on: ACHN (Renal cancer); test: NCI-60 screen (SRB, 48 h); details: for GI50 / IC (TGI) / CC50: Homo sapiens; for IC (TGI): 48 h, read-out: TGI; for CC50: read-out: LC50
[23] = tested on: HCT-15 (Colon cancer); test: NCI-60 screen (SRB, 48 h); details: Homo sapiens; for GI50: HCT-15; for IC (TGI): HCT-15, 48 h, read-out: TGI; for CC50: HCT-15, read-out: LC50

SMILES: C=C(C)[C@@H]1CC[C@]2(C)[C@H](CC=C3[C@@H]4[C@@H](C)[C@H](C)CC[C@]4(CO)CC[C@]32C)[C@@]1(C)CCCN [Compound 19]
- GI50 [1]: 2.14 µM
- IC (TGI) [1]: 8.11 µM
- CC50 [1]: 25 µM
- GI50 [2]: 3.83 µM
- IC (TGI) [2]: 11.2 µM
- CC50 [2]: 27.7 µM
- GI50 [3]: 1.04 µM
- IC (TGI) [3]: 3.46 µM
- CC50 [3]: 23.1 µM
- EC50 [4]: 4.64 ± 0.6 µM
- IC (TGI) [5]: 3.26 µM
- GI50 [5]: 1.15 µM
- CC50 [5]: 12.6 µM
- GI50 [6]: 0.85 µM
- IC (TGI) [6]: 1.58 µM
- CC50 [6]: 2.94 µM
- GI50 [7]: 0.9 µM
- IC (TGI) [7]: 1.94 µM
- CC50 [7]: 4.17 µM
- GI50 [8]: 0.81 µM
- IC (TGI) [8]: 1.54 µM
- CC50 [8]: 2.93 µM
- GI50 [9]: 1.76 µM
- IC (TGI) [9]: 6.15 µM
- CC50 [9]: 20.9 µM
- GI50 [10]: 1.01 µM
- IC (TGI) [10]: 2.11 µM
- CC50 [10]: 4.39 µM
- GI50 [11]: 0.85 µM
- IC (TGI) [11]: 1.76 µM
- CC50 [11]: 3.64 µM
- GI50 [12]: 0.96 µM
- IC (TGI) [12]: 1.71 µM
- CC50 [12]: 3.04 µM
- GI50 [13]: 1.07 µM
- IC (TGI) [13]: 2.21 µM
- CC50 [13]: 4.68 µM
- GI50 [14]: 0.85 µM
- IC (TGI) [14]: 3.62 µM
- CC50 [14]: 17.1 µM
- GI50 [15]: 0.84 µM
- IC (TGI) [15]: 1.67 µM
- CC50 [15]: 3.34 µM
- GI50 [16]: 0.73 µM
- IC (TGI) [16]: 1.42 µM
- CC50 [16]: 2.74 µM
- GI50 [17]: 1.74 µM
- IC (TGI) [17]: 6.38 µM
- CC50 [17]: 18.6 µM
- Growth % of the Most Sensitive Cell Lines ([18]; HCC-2998, 1 dose 10 µM): −93.35%
- GI50 [18]: 0.87 µM
- IC (TGI) [18]: 1.62 µM
- CC50 [18]: 3.02 µM
- GI50 [19]: 6.72 µM
- IC (TGI) [19]: 18.3 µM
- CC50 ([19]; NCI-H226, read-out: LC50): 49.9 µM
- IC (TGI) [20]: 3.3 µM
- GI50 [20]: 1.54 µM
- CC50 [20]: 7.68 µM
- GI50 [21]: 0.83 µM
- IC (TGI) [21]: 1.73 µM
- GI50 [22]: 1.42 µM
- IC (TGI) [22]: 3.4 µM
- CC50 [22]: 17 µM
- GI50 [23]: 0.84 µM
- IC (TGI) [23]: 1.76 µM
- CC50 [23]: 3.69 µM

SMILES: C=C(C)[C@@H]1CC[C@]2(C)[C@H](C=CC3=C4C[C@@](C)(CO)CC[C@]4(C)CC[C@]32C)[C@@]1(C)CCCN [Compound 20]
- GI50 [1]: 1.75 µM
- IC (TGI) [1]: 3.17 µM
- CC50 [1]: 5.74 µM
- GI50 [2]: 1.54 µM
- IC (TGI) [2]: 2.9 µM
- CC50 [2]: 5.44 µM
- GI50 [3]: 1.48 µM
- IC (TGI) [3]: 3.21 µM
- CC50 [3]: 6.96 µM
- EC50 [4]: 3.46 ± 0.3 µM
- IC (TGI) [5]: 3.18 µM
- GI50 [5]: 1.67 µM
- CC50 [5]: 6.04 µM
- GI50 [6]: 1.78 µM
- IC (TGI) [6]: 3.21 µM
- CC50 [6]: 5.79 µM
- GI50 [7]: 1.49 µM
- IC (TGI) [7]: 3.23 µM
- CC50 [7]: 6.96 µM
- GI50 [8]: 1.69 µM
- IC (TGI) [8]: 3.21 µM
- CC50 [8]: 6.08 µM
- GI50 [9]: 1.71 µM
- IC (TGI) [9]: 3.06 µM
- CC50 [9]: 5.57 µM
- GI50 [10]: 1.56 µM
- IC (TGI) [10]: 3.04 µM
- CC50 [10]: 5.93 µM
- GI50 [11]: 1.69 µM
- IC (TGI) [11]: 3.34 µM
- CC50 [11]: 6.62 µM
- GI50 [12]: 1.77 µM
- IC (TGI) [12]: 3.27 µM
- CC50 [12]: 6.02 µM
- GI50 [13]: 1.82 µM
- IC (TGI) [13]: 3.65 µM
- CC50 [13]: 7.14 µM
- GI50 [14]: 1.53 µM
- IC (TGI) [14]: 2.97 µM
- CC50 [14]: 5.77 µM
- GI50 [15]: 1.64 µM
- IC (TGI) [15]: 3.15 µM
- CC50 [15]: 6.03 µM
- GI50 [16]: 1.46 µM
- IC (TGI) [16]: 2.91 µM
- CC50 [16]: 5.82 µM
- GI50 [17]: 1.57 µM
- IC (TGI) [17]: 2.91 µM
- CC50 [17]: 5.43 µM
- GI50 [18]: 0.79 µM
- IC (TGI) [18]: 2.14 µM
- CC50 [18]: 4.97 µM
- GI50 [19]: 1.85 µM
- IC (TGI) [19]: 3.66 µM
- IC (TGI) [20]: 3.22 µM
- GI50 [20]: 1.71 µM
- CC50 [20]: 6.09 µM
- GI50 [21]: 1.6 µM
- IC (TGI) [21]: 3.4 µM
- CC50 ([21]; MCF7, read-out: LC50): 7.23 µM
- Growth % of the Most Sensitive Cell Lines ([22]; 1 dose 10 µM): −94.94%
- GI50 [22]: 1.76 µM
- IC (TGI) [22]: 3.14 µM
- CC50 [22]: 5.6 µM
- GI50 [23]: 1.53 µM
- IC (TGI) [23]: 2.92 µM
- CC50 [23]: 5.56 µM
